Eight compounds from patent publication US11814367B2, “Inhibitors of glycogen synthase 1 (GYS1) and methods of use thereof” (Maze Therapeutics, Inc., priority 2021, dated 2023) can be followed below.

Some results are limits rather than exact numbers.

Test [1] concerns hGYS1 enzyme / glycogen synthesis in HeLa cells. The test can be described thus: GYS1 cell based assay (glycogen synthesis, Glucose-glo). On the set-up: species or system human. The conditions noted are these: Homo sapiens, HeLa, 24 h, 24 h incubation, 20 mM glucose, geometric mean of at least 2 runs. In short, it runs like this: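 HeLa cells starved 24 h in medium containing only 1× Glutamax were plated onto compound in medium with 20 mM glucose (1% DMSO final) for 24 h, 37 °C, 5% CO2. Acid lysates were Tris-quenched, glucoamylase-digested (pH 5.3, 1 h, 37 °C) and read by Glucose-glo luminescence. IC50 came from Hill fits, as geometric mean of ≥2 runs.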

Test [2] deals with hGYS1 enzyme (recombinant hGYS1/GN1 protein) (Homo sapiens (Human), UniProt P13807). The test can be described thus: GYS1 coupled enzyme assay (PK/LDH). Format: biochemical. The note with it: hGYS1/GN1 50 nM, UDP-Glucose 0.8 mM, G6P 1 mM; geometric mean of at least 2 runs.
For test [3], the target named is hGYS2 enzyme (recombinant hGYS2/GN1 protein) (Homo sapiens (Human), UniProt P54840). The test can be described thus: GYS2 coupled enzyme assay (PK/LDH). Format: biochemical. The conditions noted are these: geometric mean of at least 2 assay runs on separate days, read-out: Avg_IC50. In short, it runs like this:
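hGYS2/GN1 200 nM; UDP-Glc 2 mM; glycogen 0.2%; G6P 2 mM; PEP 2 mM, NADH 0.6 mM, PK/LDH 20 U/mL. 50 mM Tris pH 7.5, MgCl2, KCl, BSA, TCEP, 2.5% DMSO. Kinetic A340, 10 min. IC50 = geomean of ≥2 runs.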

Sequence of hGYS2 enzyme (recombinant hGYS2/GN1 protein) (P54840 whole entry): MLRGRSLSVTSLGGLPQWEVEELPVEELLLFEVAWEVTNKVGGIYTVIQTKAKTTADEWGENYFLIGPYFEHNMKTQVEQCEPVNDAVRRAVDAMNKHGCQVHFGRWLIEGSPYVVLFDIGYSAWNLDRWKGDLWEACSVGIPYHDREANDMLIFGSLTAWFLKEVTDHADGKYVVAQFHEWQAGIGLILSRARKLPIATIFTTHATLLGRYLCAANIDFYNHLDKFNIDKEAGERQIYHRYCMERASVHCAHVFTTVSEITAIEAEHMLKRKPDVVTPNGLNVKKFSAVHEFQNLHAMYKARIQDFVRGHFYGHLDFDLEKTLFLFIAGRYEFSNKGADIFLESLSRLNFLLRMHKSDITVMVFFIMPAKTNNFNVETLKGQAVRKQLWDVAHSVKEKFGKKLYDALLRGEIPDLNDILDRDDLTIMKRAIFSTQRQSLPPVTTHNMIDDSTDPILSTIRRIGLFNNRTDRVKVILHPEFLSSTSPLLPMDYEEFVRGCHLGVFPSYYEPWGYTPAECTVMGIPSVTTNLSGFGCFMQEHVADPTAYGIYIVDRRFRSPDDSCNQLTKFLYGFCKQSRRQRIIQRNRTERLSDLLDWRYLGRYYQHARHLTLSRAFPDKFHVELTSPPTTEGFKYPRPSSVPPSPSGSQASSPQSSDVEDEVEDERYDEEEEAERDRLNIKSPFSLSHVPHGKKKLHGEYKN
Sequence of hGYS2 enzyme (recombinant hGYS2/GN1 protein) (P46976 whole entry partner): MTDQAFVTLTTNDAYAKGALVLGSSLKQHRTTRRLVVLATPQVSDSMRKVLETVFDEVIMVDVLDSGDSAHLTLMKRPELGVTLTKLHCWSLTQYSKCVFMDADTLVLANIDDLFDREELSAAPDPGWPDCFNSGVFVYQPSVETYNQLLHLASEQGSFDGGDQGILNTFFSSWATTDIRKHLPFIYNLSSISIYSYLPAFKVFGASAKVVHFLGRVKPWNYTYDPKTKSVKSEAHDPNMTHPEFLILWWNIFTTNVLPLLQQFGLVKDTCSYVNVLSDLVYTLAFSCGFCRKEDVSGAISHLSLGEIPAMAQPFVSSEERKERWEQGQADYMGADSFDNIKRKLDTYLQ
Sequence of hGYS1 enzyme (recombinant hGYS1/GN1 protein) (P13807 whole entry): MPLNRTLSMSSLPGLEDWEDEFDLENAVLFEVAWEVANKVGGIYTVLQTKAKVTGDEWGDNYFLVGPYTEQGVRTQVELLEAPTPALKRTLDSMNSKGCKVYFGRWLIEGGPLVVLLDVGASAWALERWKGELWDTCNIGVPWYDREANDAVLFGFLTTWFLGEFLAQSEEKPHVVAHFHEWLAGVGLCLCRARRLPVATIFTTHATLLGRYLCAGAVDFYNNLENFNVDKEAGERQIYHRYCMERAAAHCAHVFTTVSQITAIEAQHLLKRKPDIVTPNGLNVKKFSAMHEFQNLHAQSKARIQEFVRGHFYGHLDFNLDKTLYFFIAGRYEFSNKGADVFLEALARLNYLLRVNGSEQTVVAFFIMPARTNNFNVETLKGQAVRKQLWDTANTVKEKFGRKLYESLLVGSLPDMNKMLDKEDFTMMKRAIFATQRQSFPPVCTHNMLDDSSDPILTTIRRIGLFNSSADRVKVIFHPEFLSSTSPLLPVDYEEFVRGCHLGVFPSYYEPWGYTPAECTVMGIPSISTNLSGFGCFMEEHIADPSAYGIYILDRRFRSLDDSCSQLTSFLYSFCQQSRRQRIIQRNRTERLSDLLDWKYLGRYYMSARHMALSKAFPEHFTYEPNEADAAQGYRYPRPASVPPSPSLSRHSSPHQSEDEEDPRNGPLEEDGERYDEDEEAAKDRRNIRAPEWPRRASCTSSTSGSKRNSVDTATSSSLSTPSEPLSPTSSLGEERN
Sequence of hGYS1 enzyme (recombinant hGYS1/GN1 protein) (P46976 whole entry partner): as the sequence (P46976 whole entry partner) above

For the compound `CC(C)c1ccc([C@@H](NC(=O)[C@@H]2C[C@@H](F)CN2C(=O)CNC(=O)N(C)C)c2ccccc2)nc1` [Compound 250, (2S,4R)-1-{2-[(dimethylcarbamoyl)amino]acetyl}-4-fluoro-N-[(S)-phenyl[5-(propan-2-yl)pyridin-2-yl]methyl]pyrrolidine-2-carboxamide], the results for the IC50 in test [1], in test [2] and in test [3] were 1270 nM, 43 nM and over 100000 nM, respectively.
For `CC(=O)N1C[C@H]2CCC[C@@H](C(=O)N3C[C@H](F)C[C@H]3C(=O)N[C@@H](c3ccccc3)c3ccc(C(C)C)cc3)[C@H]2C1` [Compound 183, (2S,4R)-1-[(3aS,4R,7aS)-2-acetyl-octahydro-1H-isoindole-4-carbonyl]-4-fluoro-N-[(S)-phenyl[4-(propan-2-yl)phenyl]methyl]pyrrolidine-2-carboxamide] the same measures were 930 nM, 41 nM and over 100000 nM.
For the compound `CN1CCN(CC(=O)N2C[C@H](F)C[C@H]2C(=O)N[C@@H](c2ccccc2)c2ccc(C3CC3)c(F)c2)C1=O` [Compound 425, (2S,4R)-N-[(S)-(4-cyclopropyl-3-fluorophenyl)(phenyl)methyl]-4-fluoro-1-[2-(3-methyl-2-oxoimidazolidin-1-yl)acetyl]pyrrolidine-2-carboxamide], the values for the IC50 in test [1], in test [2] and in test [3] were 3590 nM, 224 nM and over 100000 nM, respectively.
On the same counts, the results for `CC(C)c1ccc([C@@H](NC(=O)[C@@H]2C[C@@H](F)CN2C(=O)Cn2cnnc2)c2ccccc2)cc1F` [Compound 384, (2S,4R)-4-fluoro-N-[(S)-[3-fluoro-4-(propan-2-yl)phenyl](phenyl)methyl]-1-[2-(4H-1,2,4-triazol-4-yl)acetyl]pyrrolidine-2-carboxamide] are 700 nM, 33 nM and over 100000 nM.
Turning to `CC(C)c1ccc([C@@H](NC(=O)[C@@H]2C[C@@H](F)CN2C(=O)COC(=O)N2CCN(C(=O)OC(C)(C)C)CC2)c2ccccc2)cc1F` [Compound 364, 1-tert-butyl 4-{2-[(2S,4R)-4-fluoro-2-{[(S)-[3-fluoro-4-(propan-2-yl)phenyl](phenyl)methyl]carbamoyl}pyrrolidin-1-yl]-2-oxoethyl} piperazine-1,4-dicarboxylate], the IC50 in test [1] is 480 nM; in test [2], 80 nM; in test [3], over 100000 nM.
Take `O=C(N[C@@H](c1ccccc1)c1ccc(C2CC(F)(F)C2)c(F)n1)[C@@H]1C[C@@H](F)CN1C(=O)Cc1ccc(=O)[nH]c1` [Compound 516, (2S,4R)-N-[(S)-[5-(3,3-difluorocyclobutyl)-6-fluoropyridin-2-yl](phenyl)methyl]-4-fluoro-1-[2-(6-oxo-1,6-dihydropyridin-3-yl)acetyl]pyrrolidine-2-carboxamide]: the IC50 in test [1] was 710 nM; in test [2], 8 nM; in test [3], over 100000 nM.
Regarding `CC(=O)N1C[C@H](F)C[C@H]1C(=O)NC(c1cccc(-c2ccn[nH]2)c1)c1ccc(C(C)C)c(F)n1` (single isomer, unassigned) [Compound 690, (2S,4R)-1-acetyl-4-fluoro-N-[(S) or (R)-[6-fluoro-5-(propan-2-yl)pyridin-2-yl][3-(1H-pyrazol-5-yl)phenyl]methyl] pyrrolidine-2-carboxamide], the IC50 in test [1] was 900 nM; in test [2], 47 nM; in test [3], over 100000 nM.
Regarding `CC1(c2ccc([C@@H](NC(=O)[C@@H]3C[C@@H](F)CN3C(=O)Cn3cnnc3)c3ccccc3)cc2F)CC1` [Compound 582, (2S,4R)-4-fluoro-N-[(S)-[3-fluoro-4-(1-methylcyclopropyl)phenyl](phenyl)methyl]-1-[2-(4H-1,2,4-triazol-4-yl)acetyl]pyrrolidine-2-carboxamide], the IC50 in test [1] is 8080 nM; in test [2] it was 319 nM; in test [3], over 100000 nM.
